Like-named read-outs stand apart in the source and are kept apart here.
Experiments:
BTK enzyme = molecular target: T1, BTK enzyme (Homo sapiens, UniProt Q06187); experiment: In vitro BTK kinase assay: BTK-POLYGAT-LS assay; format: biochemical; settings: ATP 10 μM, read-out: IC50 (10uMATP)
T1 construct: purchased Upstate 14-552
How it was run: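 Human BTK activity was measured with final 10 μM ATP and 100 nM polyGAT substrate in pH 7.5 Tris buffer with 10 mM MgCl2, DTT, Triton X-100 and casein.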

[1] = molecular target: BTK (phospho-BTK) in human whole blood (Homo sapiens, UniProt Q06187); experiment: In vitro PD assay in human whole blood (pBTK assay)
BTK (phospho-BTK) in human whole blood, sequence (Q06187 whole entry): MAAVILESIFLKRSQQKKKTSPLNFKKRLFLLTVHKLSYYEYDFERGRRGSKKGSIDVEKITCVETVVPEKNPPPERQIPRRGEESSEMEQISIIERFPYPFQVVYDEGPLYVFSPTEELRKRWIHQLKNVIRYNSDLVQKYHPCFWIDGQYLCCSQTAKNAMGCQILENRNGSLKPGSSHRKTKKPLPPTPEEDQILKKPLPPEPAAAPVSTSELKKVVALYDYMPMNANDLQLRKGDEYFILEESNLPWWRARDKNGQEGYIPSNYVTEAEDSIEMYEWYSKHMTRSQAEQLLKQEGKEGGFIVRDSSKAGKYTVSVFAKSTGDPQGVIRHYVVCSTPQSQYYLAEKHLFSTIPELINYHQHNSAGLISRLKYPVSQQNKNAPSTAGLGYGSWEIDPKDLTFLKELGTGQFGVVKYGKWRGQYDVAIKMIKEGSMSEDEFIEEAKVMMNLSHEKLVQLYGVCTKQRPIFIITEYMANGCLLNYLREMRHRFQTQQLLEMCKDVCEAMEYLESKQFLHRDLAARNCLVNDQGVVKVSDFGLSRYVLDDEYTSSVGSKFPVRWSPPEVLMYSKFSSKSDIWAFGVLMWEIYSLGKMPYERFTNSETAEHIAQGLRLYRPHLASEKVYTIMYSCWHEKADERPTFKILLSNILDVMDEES

T1 sequence (Q06187 whole entry): as above

IC50 (BTK enzyme) [nM]	IC50 ([1]; read-out: pBTK IC50, human whole blood, 37° C. for 30 min) [nM]	IC50 [1] [nM]	SMILES
< 10	< 500	–	Cc1cc(-c2ccnc(Nc3cnn([C@@H]4CCNC[C@H]4F)c3)n2)ccc1CNC(=O)N1CC(OC(C)C)C1 (relative stereo) [Example I-220]
< 10	–	< 500	Cc1cc(-c2ccnc(Nc3cnn(C4CCC(C(=O)O)CC4)c3)n2)ccc1CNC(=O)c1cnn(C(C)(C)C)c1 (stereo in doubt) [Example I-195, cis-4-(4-((4-(4-((1-(tert-butyl)-1H-pyrazole-4-carboxamido)methyl)-3-methylphenyl)pyrimidin-2-yl)amino)-1H-pyrazol-1-yl)cyclohexanecarboxylic acid]
< 10	–	< 500	Cc1cc(-c2ccnc(Nc3cnn(C)c3)n2)ccc1CNC(=O)c1cnc(C(C)(C)C)s1 [Example I-1, 2-(tert-butyl)-N-(2-methyl-4-(2-((1-methyl-1H-pyrazol-4-yl)amino)pyrimidin-4-yl)benzyl)thiazole-5-carboxamide]
< 10	–	500 to 1500	Cc1cc(-c2ccnc(Nc3cnn(C)c3)n2)ccc1CNC(=O)c1cc2c(s1)CCNC2 [Example I-2, N-(2-methyl-4-(2-((1-methyl-1H-pyrazol-4-yl)amino)pyrimidin-4-yl)benzyl)-4,5,6,7-tetrahydrothieno[3,2-c]pyridine-2-carboxamide]
< 10	–	1500 to 10000	Cc1cc(-c2ccnc(Nc3cnn(C)c3)n2)ccc1CNC(=O)c1cc2c(s1)CCOC2 [Example I-3, N-(2-methyl-4-(2-((1-methyl-1H-pyrazol-4-yl)amino)pyrimidin-4-yl)benzyl)-6,7-dihydro-4H-thieno[3,2-c]pyran-2-carboxamide]
< 10	–	1500 to 10000	Cc1cc(-c2ccnc(Nc3cnn(C)c3)n2)ccc1CNC(=O)c1cnc(C(F)(F)F)s1 [Example I-4, N-(2-methyl-4-(2-((1-methyl-1H-pyrazol-4-yl)amino)pyrimidin-4-yl)benzyl)-2-(trifluoromethyl)thiazole-5-carboxamide]
< 10	–	500 to 1500	Cc1cc(-c2ccnc(Nc3cnn(C)c3)n2)ccc1CNC(=O)c1cc2c(s1)CCCC2 [Example I-5, N-(2-methyl-4-(2-((1-methyl-1H-pyrazol-4-yl)amino)pyrimidin-4-yl)benzyl)-4,5,6,7-tetrahydrobenzo[b]thiophene-2-carboxamide]
< 10	–	500 to 1500	Cc1cc(-c2ccnc(Nc3cnn(C)c3)n2)ccc1CNC(=O)c1ccc(C(C)(C)C)cn1 [Example I-6, 5-(tert-butyl)-N-(2-methyl-4-(2-((1-methyl-1H-pyrazol-4-yl)amino)pyrimidin-4-yl)benzyl)picolinamide]
< 10	–	500 to 1500	Cc1cc(-c2ccnc(Nc3cnn(C)c3)n2)ccc1CNC(=O)c1ccc(C(C)(C)C)cc1 [Example I-7, 4-(tert-butyl)-N-(2-methyl-4-(2-((1-methyl-1H-pyrazol-4-yl)amino)pyrimidin-4-yl)benzyl)benzamide]
< 10	–	500 to 1500	Cc1cc(-c2ccnc(Nc3cnn(C)c3)n2)ccc1CNC(=O)c1nc2c(s1)CCCC2 [Example I-9, N-(2-methyl-4-(2-((1-methyl-1H-pyrazol-4-yl)amino)pyrimidin-4-yl)benzyl)-4,5,6,7-tetrahydrobenzo[d]thiazole-2-carboxamide]
< 10	–	< 500	Cc1cc(-c2ccnc(Nc3cnn(C)c3)n2)ccc1CNC(=O)c1nc2c(s1)CCC2 [Example I-10, N-(2-methyl-4-(2-((1-methyl-1H-pyrazol-4-yl)amino)pyrimidin-4-yl)benzyl)-5,6-dihydro-4H-cyclopenta[d]thiazole-2-carboxamide]
< 10	–	< 500	Cc1cc(-c2ccnc(Nc3cnn(C)c3)n2)ccc1CN1Cc2nc(C(C)(C)C)sc2C1=O [Example I-12, 2-(tert-butyl)-5-(2-methyl-4-(2-((1-methyl-1H-pyrazol-4-yl)amino)pyrimidin-4-yl)benzyl)-4H-pyrrolo[3,4-d]thiazol-6(5H)-one]
< 10	–	1500 to 10000	Cc1cc(-c2ccnc(Nc3cnn(C)c3)n2)ccc1CN1Cc2cc(C3CC3)sc2C1=O [Example I-13, 2-cyclopropyl-5-(2-methyl-4-(2-((1-methyl-1H-pyrazol-4-yl)amino)pyrimidin-4-yl)benzyl)-4H-thieno[2,3-c]pyrrol-6(5H)-one]
< 10	–	< 500	Cc1cc(-c2ccnc(Nc3cnn(C)c3)n2)ccc1CNC(=O)c1cc2c(s1)CCCO2 [Example I-15, N-(2-methyl-4-(2-((1-methyl-1H-pyrazol-4-yl)amino)pyrimidin-4-yl)benzyl)-6,7-dihydro-5H-thieno[3,2-b]pyran-2-carboxamide]
< 10	–	500 to 1500	Cc1cc(-c2ccnc(Nc3cnn(C)c3)n2)ccc1CNC(=O)N1CCC(C(F)(F)F)CC1 [Example I-19, N-(2-methyl-4-(2-((1-methyl-1H-pyrazol-4-yl)amino)pyrimidin-4-yl)benzyl)-4-(trifluoromethyl)piperidine-1-carboxamide]
< 10	–	500 to 1500	Cc1cc(-c2ccnc(Nc3cnn(C)c3)n2)ccc1CNC(=O)N1CCC(C(C)(C)C)CC1 [Example I-20, 4-(tert-butyl)-N-(2-methyl-4-(2-((1-methyl-1H-pyrazol-4-yl)amino)pyrimidin-4-yl)benzyl)piperidine-1-carboxamide]
100 to 999	–	1500 to 10000	Cc1cc(-c2ccnc(Nc3cnn(C)c3)n2)ccc1CNC(=O)N1CCN(C(C)(C)C)CC1 [Example I-23, 4-(tert-butyl)-N-(2-methyl-4-(2-((1-methyl-1H-pyrazol-4-yl)amino)pyrimidin-4-yl)benzyl)piperazine-1-carboxamide]
10 to 99	–	1500 to 10000	Cc1cc(-c2ccnc(Nc3cnn(C)c3)n2)ccc1CNC(=O)N1CCOC(C(C)C)C1 (stereo not shown) [Example I-24, 2-isopropyl-N-(2-methyl-4-(2-((1-methyl-1H-pyrazol-4-yl)amino)pyrimidin-4-yl)benzyl)morpholine-4-carboxamide]
< 10	–	< 500	Cc1cc(-c2ccnc(Nc3cn[nH]c3)n2)ccc1CNC(=O)c1cnc(C(C)(C)C)s1 [Example I-36, N-(4-(2-((1H-pyrazol-4-yl)amino)pyrimidin-4-yl)-2-methylbenzyl)-2-(tert-butyl)thiazole-5-carboxamide]
< 10	–	< 500	Cc1cc(-c2ccnc(Nc3cnn(CCO)c3)n2)ccc1CNC(=O)c1cnc(C(C)(C)C)s1 [Example I-37, 2-(tert-butyl)-N-(4-(2-((1-(2-hydroxyethyl)-1H-pyrazol-4-yl)amino)pyrimidin-4-yl)-2-methylbenzyl)thiazole-5-carboxamide]
< 10	–	500 to 1500	Cc1cc(-c2ccnc(Nc3cnn(C4CCOCC4)c3)n2)ccc1CNC(=O)c1cnc(C(C)(C)C)s1 [Example I-38, 2-(tert-butyl)-N-(2-methyl-4-(2-((1-(tetrahydro-2H-pyran-4-yl)-1H-pyrazol-4-yl)amino)pyrimidin-4-yl)benzyl)thiazole-5-carboxamide]
< 10	–	< 500	COCCn1cc(Nc2nccc(-c3ccc(CNC(=O)c4cnc(C(C)(C)C)s4)c(C)c3)n2)cn1 [Example I-39, 2-(tert-butyl)-N-(4-(2-((1-(2-methoxyethyl)-1H-pyrazol-4-yl)amino)pyrimidin-4-yl)-2-methylbenzyl)thiazole-5-carboxamide]
< 10	–	< 500	CCn1cc(Nc2nccc(-c3ccc(CNC(=O)c4cnc(C(C)(C)C)s4)c(C)c3)n2)cn1 [Example I-40, 2-(tert-butyl)-N-(4-(2-((1-ethyl-1H-pyrazol-4-yl)amino)pyrimidin-4-yl)-2-methylbenzyl)thiazole-5-carboxamide]
< 10	–	< 500	Cc1cc(-c2ccnc(Nc3cnn(C(C)C)c3)n2)ccc1CNC(=O)c1cnc(C(C)(C)C)s1 [Example I-41, 2-(tert-butyl)-N-(4-(2-((1-isopropyl-1H-pyrazol-4-yl)amino)pyrimidin-4-yl)-2-methylbenzyl)thiazole-5-carboxamide]
< 10	–	< 500	Cc1cc(-c2ccnc(Nc3cnn(C4CNC4)c3)n2)ccc1CNC(=O)c1cnc(C(C)(C)C)s1 [Example I-42, N-(4-(2-((1-(azetidin-3-yl)-1H-pyrazol-4-yl)amino)pyrimidin-4-yl)-2-methylbenzyl)-2-(tert-butyl)thiazole-5-carboxamide]
< 10	–	< 500	Cc1cc(-c2ccnc(Nc3cnn(C4CN(C)C4)c3)n2)ccc1CNC(=O)c1cnc(C(C)(C)C)s1 [Example I-43, 2-(tert-butyl)-N-(2-methyl-4-(2-((1-(1-methylazetidin-3-yl)-1H-pyrazol-4-yl)amino)pyrimidin-4-yl)benzyl)thiazole-5-carboxamide]
< 10	–	–	Cc1cc(-c2ccnc(Nc3cnn(C)c3)n2)ccc1CNC(=O)c1cc2n(n1)CCCC2 [Example I-159, N-(2-Methyl-4-(2-((1-methyl-1H-pyrazol-4-yl)amino)pyrimidin-4-yl)benzyl)-4,5,6,7-tetrahydropyrazolo[1,5-a]pyridine-2-carboxamide]
–	–	< 500	Cn1cc(Nc2nccc(-c3ccc4c(c3)CCCCC4NC(=O)c3cnn(C(C)(C)C)c3)n2)cn1 (stereo not shown) [Example I-257, 1-tert-butyl-N-[2-[2-[(1-methylpyrazol-4-yl)amino]pyrimidin-4-yl]-6,7,8,9-tetrahydro-5H-benzo[7]annulen-5-yl]pyrazole-4-carboxamide]
–	–	< 500	[2H]C([2H])([2H])C(OC1CN(C(=O)NCc2ccc(-c3ccnc(Nc4cnn(CC)c4)n3)cc2C)C1)C([2H])([2H])[2H] [Example I-262, N-[[4-[2-[(1-ethylpyrazol-4-yl)amino]pyrimidin-4-yl]-2-methyl-phenyl]methyl]-3-(1,1,1,3,3,3-d6)isopropoxy-azetidine-1-carboxamide]

Reference: patent US10759783B2, “Biaryl inhibitors of Bruton'S tyrosine kinase” (BIOGEN MA INC., priority 2013, dated 2020)
